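Abbreviation: GI50, concentration required for 50% inhibition of growth. TGI: concentration producing complete growth inhibition.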
Assays:
Assay in all cases: NCI tumour cell line growth inhibition, 384-well format
[1] = tested on: RPMI-8226 leukemia
[2] = tested on: HL-60(TB) leukemia
[3] = tested on: A549 NSCLC
[4] = tested on: 786-0 renal
[5] = tested on: SF-539 CNS
[6] = tested on: HOP-62 NSCLC
[7] = tested on: MALME-3M melanoma
[8] = tested on: SNB-75 CNS
[9] = tested on: KM12 colon
[10] = tested on: U251 glioblastoma
[11] = tested on: CCRF-CEM leukemia
[12] = tested on: A498 renal
[13] = tested on: MDA-MB-468 breast
[14] = tested on: HT29 colon
[15] = tested on: NCI-H460 NSCLC
[16] = tested on: SK-OV-3 ovarian
[17] = tested on: COLO 205 colon
[18] = tested on: SF-268 CNS
[19] = tested on: OVCAR-8 ovarian
[20] = tested on: NCI-H522 lung
[21] = tested on: SK-MEL-28 melanoma
[22] = tested on: OVCAR-4 ovarian
[23] = tested on: OVCAR-3 ovarian
[24] = tested on: RXF 393 renal
[25] = tested on: SW-620 colon
[26] = tested on: SK-MEL-5 melanoma
[27] = tested on: MOLT-4 leukemia
[28] = tested on: SN12C renal
[29] = tested on: OVCAR-5 ovarian
[30] = tested on: DU-145 prostate
[31] = tested on: BT-549 breast
[32] = tested on: UACC-257 melanoma
[33] = tested on: M14 melanoma
[34] = tested on: SNB-19 CNS
[35] = tested on: NCI-H322M lung
[36] = tested on: HCC-2998 colon
[37] = tested on: HOP-92 NSCLC
[38] = tested on: NCI-H23 lung
[39] = tested on: HCT-15 colon
[40] = tested on: HCT-116 colon
[41] = tested on: UACC-62 melanoma
[42] = tested on: MDA-MB-435 melanoma
[43] = tested on: CAKI-1 renal
[44] = tested on: NCI-H226 lung
[45] = tested on: ACHN renal
[46] = tested on: IGROV1 ovarian
[47] = tested on: SF-295 CNS
[48] = tested on: T-47D breast
[49] = tested on: NCI/ADR-RES ovarian
[50] = tested on: K-562 leukemia
[51] = tested on: LOX IMVI melanoma
[52] = tested on: TK-10 renal
[53] = tested on: EKVX NSCLC
[54] = tested on: MDA-MB-231 breast
[55] = tested on: PC-3 prostate
[56] = tested on: MCF7 breast
[57] = tested on: HS 578T breast
[58] = tested on: UO-31 renal

CC(=O)N1CCN(CCOc2ccc(C3CCN(C4=Nn5c(nnc5C(F)(F)F)CC4)CC3)cc2)CC1 was tested, and the GI50 [1] was 3.34 µM, the TGI [1] was 13.4 µM and the GI50 [2] was 3.79 µM. For the same molecule, the TGI [2] was 14.7 µM, the GI50 [3] was 14.2 µM and the TGI [3] was > 100 µM. For the same molecule, the GI50 [4] was 8.6 µM, the TGI [4] was 69.3 µM and the GI50 [5] was 13.5 µM. The TGI [5] was > 100 µM, the GI50 [6] was 4.71 µM and the TGI [6] was 25.9 µM. It also gave a GI50 [7] of 11.6 µM, a TGI [7] of 75.2 µM and a GI50 [8] of 8.08 µM. For the same molecule, the TGI [8] was 76.5 µM, the GI50 [9] was 12 µM and the TGI [9] was > 100 µM. For the same molecule, the GI50 [10] was 16.5 µM, the TGI [10] was 67.3 µM and the GI50 [11] was 4.06 µM. It also gave a TGI [11] of 19.3 µM, a GI50 [12] of 14.7 µM and a TGI [12] of 77.2 µM. The GI50 [13] was 1.72 µM, the TGI [13] was 10 µM and the GI50 [14] was 10.4 µM. For the same molecule, the TGI [14] was > 100 µM, the GI50 [15] was 13.3 µM and the TGI [15] was 36.6 µM. It also gave a GI50 [16] of 6.93 µM, a TGI [16] of 31.8 µM and a GI50 [17] of 15.2 µM. For the same molecule, the TGI [17] was > 100 µM, the GI50 [18] was 2.83 µM and the TGI [18] was 12.7 µM. The GI50 [19] was 12.3 µM, the TGI [19] was 60 µM and the GI50 [20] was 2.9 µM. The TGI [20] was 20.1 µM, the GI50 [21] was 24.2 µM and the TGI [21] was > 100 µM. It also gave a GI50 [22] of 11.8 µM, a TGI [22] of 71.7 µM and a GI50 [23] of 7.08 µM. It also gave a TGI [23] of 35.3 µM, a GI50 [24] of 5.97 µM and a TGI [24] of 27.5 µM. For the same molecule, the GI50 [25] was > 100 µM, the TGI [25] was > 100 µM and the GI50 [26] was 4.83 µM. It also gave a TGI [26] of 19.7 µM, a GI50 [27] of 4.72 µM and a TGI [27] of 21.4 µM. For the same molecule, the GI50 [28] was 22.5 µM, the TGI [28] was > 100 µM and the GI50 [29] was 15.1 µM. For the same molecule, the TGI [29] was > 100 µM, the GI50 [30] was 32 µM and the TGI [30] was > 100 µM. The GI50 [31] was 5.94 µM, the TGI [31] was 39.8 µM and the GI50 [32] was 4.87 µM. For the same molecule, the TGI [32] was 26.2 µM, the GI50 [33] was 10.9 µM and the TGI [33] was > 100 µM. The GI50 [34] was 17.9 µM, the TGI [34] was 83.4 µM and the GI50 [35] was 13 µM. For the same molecule, the TGI [35] was > 100 µM, the GI50 [36] was 6.17 µM and the TGI [36] was 24.2 µM. The GI50 [37] was 14.5 µM, the TGI [37] was > 100 µM and the GI50 [38] was 8.08 µM. The TGI [38] was > 100 µM, the GI50 [39] was 18.1 µM and the TGI [39] was > 100 µM. The GI50 [40] was 13.4 µM, the TGI [40] was > 100 µM and the GI50 [41] was 4.27 µM. The TGI [41] was 88.8 µM, the GI50 [42] was 32.8 µM and the TGI [42] was > 100 µM. The GI50 [43] was 3.53 µM, the TGI [43] was > 100 µM and the GI50 [44] was 15 µM. For the same molecule, the TGI [44] was > 100 µM, the GI50 [45] was 15.3 µM and the TGI [45] was 62.8 µM. The GI50 [46] was 6.07 µM, the TGI [46] was 54.1 µM and the GI50 [47] was 23.6 µM. For the same molecule, the TGI [47] was > 100 µM, the GI50 [48] was 1.16 µM and the TGI [48] was 7.99 µM. The GI50 [49] was 24.1 µM, the TGI [49] was 75.6 µM and the GI50 [50] was 3.66 µM. The TGI [50] was > 100 µM, the GI50 [51] was 3.75 µM and the TGI [51] was 17.9 µM. For the same molecule, the GI50 [52] was 20.9 µM, the TGI [52] was > 100 µM and the GI50 [53] was 16.8 µM. The TGI [53] was > 100 µM, the GI50 [54] was 5.58 µM and the TGI [54] was > 100 µM. The GI50 [55] was 9.08 µM, the TGI [55] was > 100 µM and the GI50 [56] was 3.42 µM. It also gave a TGI [56] of 83.1 µM, a GI50 [57] of 4.78 µM and a TGI [57] of 31.2 µM. For the same molecule, the GI50 [58] was 22.9 µM and the TGI [58] was > 100 µM.

— PubChem BioAssay (NCI)
